Test results: PMC11329928, “Design, synthesis and structure-activity relationship (SAR) studies of an unusual class of non-cationic fatty amine-tripeptide conjugates as novel synthetic antimicrobial agents” (Frontiers in Pharmacology, 2024)

Legend:
[1] = RP-HPLC retention time used to determine hydrophobicity; assay type: physicochemical; conditions: analytical RP-HPLC, C18 Sunfire column (4.6 mm × 150 mm, 3.5 μm); A = 0.05% TFA in water, B = acetonitrile; 10% to 100% B in 20 min then isocratic 100% B 10 min; 217 and 254 nm; used as measure of hydrophobicity
Method: The purity of the lipopeptides was checked by analytical RP-HPLC on an Agilent Infinity instrument equipped with a Diode Array and a C18 Sunfire column (4.6 mm × 150 mm, 3.5 μm). As mobile phase A:B mixtures were used, where A = 0.05% TFA in water and B = acetonitrile. The samples were analyzed at 217 and 254 nm in a gradient from 10% of B to 100% of B in 20 min followed by isocratic 100% of B in 10 min.
Retention times were used to determine the hydrophobicity ([Neubauer et al., 2020]). HRMS (EI+) was carried out in an Agilent 6,520 Accurate-Mass Q-TOF LC/MS spectrometer using water/acetonitrile mixtures. Results can be found in Supplementary Section S3, S4.

[2] = system: Streptococcus pneumoniae R6; assay: Growth inhibition / lysis screening of planktonic cultures (OD550/600); assay type: cell-based; set-up: key: (+++) full inhibition; (++) partial inhibition; (+) growth retardation; -: (−) no effect; conditions: S. pneumoniae R6, 50 and 100 μM compound added at early logarithmic phase (T1), OD550/600 followed 10 h, 37°C
Method: (§1) Planktonic cultures of selected pathogens (S. pneumoniae R6, S. pyogenes ^T, Staphylococcus aureus ^T, Escherichia coli DH10B, and Pseudomonas aeruginosa PAO1 strains) on early logarithmic-phase (T1) were assayed for their sensitivity to a broad range of DICAM compounds, as indicated in Table 1. Their bacteriostatic or lytic effect was first tested by measuring the variation of the OD550/600 as a function of time (10 h) when (50/100 μM) DICAMs were added, compared to untreated controls. The screening results, summarized in Table 1, evidenced that a potent antimicrobial activity may exist even when the negative charge of the peptide was higher than in the prototype compounds.
(§2) Susceptibility to DICAMs was first tested by growth-inhibition assays at 50 and 100 μM of compound. Briefly, working solutions at 5 mM or 10 mM DICAM in pure DMSO were prepared from DICAM stocks (40 mM in pure DMSO) and diluted with fresh culture medium to 5× the desired final concentration. Aliquots (50 µL) of these solutions were added to 200 µL of bacterium cultures grown to early exponential phase (OD550/600 c. a. 0.15–0.2 in sterile 96-well plates (Cultek, Spain). Incubation continued for 10 h at 37°C and turbidity (OD550/600) values were measured every 20 min to monitor growth and lysis, using a VersaMax microplate reader (Molecular Devices; United Kingdom). Next, the activity dependence on DICAM’s dose was examined by measuring the turbidity of treated and untreated cultures as a function of time. Also, the decay of bacterial viability (CFU/mL) at selected times of treatment was assessed by colony counting on LB-agar or TSA plates after overnight incubation at 37°C. By default, 10 μL of 10-fold serially diluted samples were plated, which set the lower detection limit at 10^2 CFU/mL (10^1 CFU/mL when 100 μL of the undiluted sample was seeded).

S. pneumoniae D39 = assay type: cell-based, Streptococcus pneumoniae
From the text: First, the substitution of the fatty amino chain of 18 carbon atoms of the reference compound DICAM 2 by either an OMe group (methylated tripeptide DICAM 5) or an amine with 12 carbon atoms (DICAM 9) abolished the activity against all three pathogens. However, the activity remained intact when the chain of the fatty amine of prototypes DICAMs 1 and 4 was two carbon atoms shorter (DICAM 10 and DICAM 12, respectively), based on S. pneumoniae and S. pyogenes results. […] Third, Glu and Ala were tolerated as C-terminal residues of the lipotripeptides. […] In addition, deletion of the C-terminal Glu (DICAM 13) eradicated the activity against S. pneumoniae and S. aureus. However, a delay and small inhibition of S. pyogenes ^T growth was still observed. Fourth, Glu (DICAMs 19 and 20) and Orn (DICAMs 21 and 22) were tolerated as N-terminal residues, with the impact of these modifications being pathogen-dependent. […] SAR studies continued by measuring the dose dependence of DICAM’s activity at T1 with all the compounds found to be active against S. pyogenes or S. aureus in the initial screening, and all but one compound in the case of S. pneumoniae. The OD values of bacterial cultures were monitored after DICAM addition, and the decrease in the number of viable bacteria was measured relative to controls (Figures 4–6; Supplementary Figure S1). As antibacterial efficacy may decline with the bacterium dose in the inoculum ([Belley et al., 2009]; [Udekwu et al., 2009]; [Luca et al., 2013]), the assays were performed using the bacterial concentrations necessary for the fluorescence experiments in Section 2.3 (10^7–10^8 CFU/mL). At these high bacterial densities, MICs were determined as the DICAM concentration at which bacteria neither grow nor are killed (the stationary concentration (SC)), following [Udekwu et al., 2009]. By fitting the logarithmic plot of cell viability decrease vs. the DICAM dose to a Hill function (see Section 5.2.3.1) we were able to determine the maximum variation in viability (Δlogmax = ∆log f - ∆log 0, where ∆log f and ∆log 0 are the upper and lower limits of Δlog) in the assay conditions, the SC concentration (Δlog = 0), the dose required for half-variation in Δlogmax (K 1/2), and the cooperativity of the antimicrobial effect (N H).
as §2
As antibacterial efficacy may decline with the bacterium dose in the inoculum ([Belley et al., 2009]; [Udekwu et al., 2009]; [Luca et al., 2013]), activity assays were performed using the bacterial concentrations required for the fluorescence experiments in Section 2.3 (10^7–10^8 CFU/mL). At such bacterial densities, MICs were determined as the DICAM concentration at which bacteria neither grow nor are killed under assay conditions (the stationary concentration (SC)), as indicated in Section 2.2. […]

[3] = system: Pseudomonas aeruginosa PAO1; assay: Growth inhibition screening of planktonic cultures (OD550/600); assay type: cell-based; set-up: key: (+++) full inhibition; (++) partial inhibition; (+) growth retardation; -: (−) no effect; conditions: P. aeruginosa PAO1, 50 and 100 μM compound added at T1, OD550/600 followed 10 h, 37°C
Method: as §1, §2

Staphylococcus aureus T = assay: as above; assay type: cell-based; set-up: key: (+++) full inhibition; (++) partial inhibition; (+) growth retardation; -: (−) no effect; conditions: S. aureus T, 50 and 100 μM compound added at T1, OD550/600 followed 10 h, 37°C
Method: as §1, §2

Streptococcus pyogenes T = assay: as above; assay type: cell-based; set-up: key: (+++) full inhibition; (++) partial inhibition; (+) growth retardation; -: (−) no effect; conditions: S. pyogenes T, 50 and 100 μM compound added at T1, OD550/600 followed 10 h, 37°C
Method: as §1, §2

Escherichia coli DH10B [4] = assay: as above; assay type: cell-based; set-up: key: (+++) full inhibition; (++) partial inhibition; (+) growth retardation; -: (−) no effect; conditions: E. coli DH10B, 50 and 100 μM compound added at T1, OD550/600 followed 10 h, 37°C
Method: as §1, §2

[5] = system: Pseudomonas aeruginosa PAO1; assay: Resting-cell viability (CFU) with 0.5 mM EDTA; assay type: cell-based; conditions: P. aeruginosa PAO1, 100 µM compound, 3 h incubation
Method: (§3) Addition of tested compounds to the culture medium had little or no effect on bacterial growth, even at a concentration of 100 μM (Table 1). Since inactivity could arise from the inability of DICAMs to cross the outer membrane, we next tested their effect on bacterial suspensions in the absence or the presence of 0.5 mM EDTA, an outer membrane permeating agent. A decrease of approximately 90% in bacterial viability was observed after 3 h treatment with DICAM 2 and DICAM 4, compared to controls in EDTA-containing buffer (Supplementary Figure S5). No variations were found with the other compounds tested (Table 1), showing that only DICAMs containing Ala/Asn- Pro -Glu tripeptides were able to access the cell membrane and kill these pathogens when the outer membrane permeability was enhanced.
(§4) For activity assays on resting cells, bacteria grown to exponential phase (OD600 ≈ 0.3) were centrifuged and washed with 20 mM Tris-HCl (pH 7.5), adjusting the final OD600 to ≈0.6 (≈10^8 CFU/mL) with the same buffer. If required, EDTA (0.5 mM final concentration) was next added and the bacterial suspension was dispensed (225 µL per well) in 96-well plates, and then treated with 100 µM DICAM (25 µL). Samples were incubated at 37°C for 3 h and turbidity measurements were taken at selected intervals, also measuring the decay in cell viability at the end of incubation. Controls with buffer (with and without 1% DMSO), 100 µM DICAM, or 0.5 mM EDTA were run in parallel.

Escherichia coli DH10B [6] = assay: Resting-cell viability (CFU) with 0.5 mM EDTA; assay type: cell-based; conditions: E. coli DH10B, 100 µM compound, 3 h incubation
Method: as §3, §4

[7] = Calcein release from LUVs; conditions: 10 μM DICAM, 25°C, vesicle buffer pH 7.4, calcein release
Method: LUVs were prepared for calceine liberation assays as described ([Chongsiriwatana and Barron, 2009]). Lipid composition (mole %) of LUVs was: POPG (100), POPG:CL (80:20), POPG:CL:DOPE ([…]), and POPG:CL:GlcDAG (75:5:20). Briefly, the nitrogen-dried lipid mixture was dissolved at 1.25 mM with 100 mM calceine in vesicle buffer (10 mM Tris, 140 mM NaCl, 0.5 mM EDTA, pH 7.4) followed by five thaw-freeze cycles. Calceine-entrapped LUVs were prepared by extrusion through 100 nm polycarbonate membranes (Avanti Polar Lipids). Non-entrapped calceine was separated from LUVs by gel filtration on a Sephacryl® S200-HR column (Sigma). LUVs permeabilization was monitored at 25°C by fluorescence emission at 550 nm (λex = 480 nm) as a function of time in a Fluoromax-4 spectrofluorometer (Horiba, France) using agitation. Signal stabilization of samples (1,500 µL vesicle buffer plus 45 µL LUVs) was recorded for 5 min before 10 µM final DICAM addition, and calcein release was monitored for a maximum of 20 min. After incubation, samples were solubilized in Triton X-100 (0.025%) and the fluorescence signal recorded thereafter was used to normalize the entire data set. Solubilization of DICAM-untreated LUVs in Triton X-100 was used as a positive control. No perturbation was detected in controls containing DMSO.

Substance	Retention time [1] [min]	Growth halt or lysis (50/100 μM), Spn [2]	Reduction of the number of viable cells at saturating doses (S. pneumoniae D39; S. pneumoniae D39, within 60 min) [log-units]	Reduction of the number of viable cells at 3 × SC, S. pneumoniae (S. pneumoniae D39; after 1-h incubation at 3 × SC values)	Growth halt or lysis (50/100 μM), Pa [3]	Growth halt or lysis (50/100 μM), Sa T (Staphylococcus aureus T)	Growth halt or lysis (50/100 μM), Spy T (Streptococcus pyogenes T)	Growth halt or lysis (50/100 μM), Ec (Escherichia coli DH10B [4])	CFU's decay in the presence of 0.5 mM EDTA, Pa (data in parenthesis) [5]	CFU's decay in the presence of 0.5 mM EDTA, Ec (data in parenthesis) (Escherichia coli DH10B [6])	Permeation of DOPE:POPG:CL (80:15:5) LUVs, result in words [7]
Ala- Pro -Glu-NH-C12H25 · HCl [DICAM 11]	15.29	-									
Ala- Pro -Glu-NH-C16H33 · HCl [DICAM 12]	17.57	+++	≥ 4.6	99.2%–99.8							
Ala- Pro -Trp-NH-C18H37 · HCl [DICAM 16]	21.04	-			-	-	-	-	(−) ((−) ≤ 0.3 log-units)	(−) ((−) ≤ 0.3 log-units)	
Asn- Ala -Glu-NH-C18H37 · HCl [DICAM 17]	18.63	-			-	-	-	-	(−) ((−) ≤ 0.3 log-units)	(−) ((−) ≤ 0.3 log-units)	
Asn- Pro -Glu-OMe · HCl [DICAM 5]	5.15	-									
Asn- Pro -Phe-NH-C18H37 · HCl [DICAM 7]	22.21	-					-				particularly effective
Cbz-Ala- Pro -Trp-NH-C18H37 [DICAM 15]	23.18	-			-			-	(−) ((−) ≤ 0.3 log-units)	(−) ((−) ≤ 0.3 log-units)	
Cbz-Asn- Pro -Glu(O^tBu)-NH-C18H37 [DICAM 8]		-									
Cbz-Asn- Pro -Glu-NH-C12H25 [DICAM 9]	15.80	-									
Pro -Glu-NH-C18H37 · HCl [DICAM 18]	19.54	-			-			-			
